This note sets out measurements from patent publication US12366576B2, “Compositions, assays, and methods for direct modulation of fatty acid metabolism” (Dana-Farber Cancer Institute, Inc., priority 2016, dated 2025).

Bridge positions count the residues as written; N and C are the ends. Square brackets hold non-standard residues; d marks the D form. Ends that are not written are not given here. Peptide text beside a SMILES is read from it. S5 = C=CCCC[C@](C)(N)C(=O)O

Data set [1] has as its system endogenous MCL-1. Briefly: Biotinylated SAHB pulldown from MEF lysates, anti-MCL-1 Western analysis. It is filed as binding, mouse. The settings on record: for summary of binding properties: binding to MCL-1: pull-downs; for effect of alanine mutation on biotinylated MCL-1 SAHBD interaction with MCL-1: pull-downs from MEF lysates. The protocol: An exploratory proteomics analysis was conducted to identify proteins that interact with the MCL-1 BH3 domain helix. An extensive library of MCL-1 stapled BH3 peptides (FIG. 2) was generated to both identify novel protein interactors by mass spectrometry and then deploy the stapled peptide constructs as novel probes to dissect and pharmacologically modulate the identified protein interactors and associated signaling pathways. As an example, an N-terminally biotinylated stapled peptide designed based on the sequence of MCL-1's BH3 domain (Btn-MCL-1 SAHBD), or vehicle, was incubated with wild-type mouse embryonic fibroblast (MEF) lysates, followed by high stringency streptavidin capture. To validate the proteomics workflow and ensure that Btn-MCL-1 SAHBD could, in fact, engage protein interactors in a lysate, eluates were first run on a gel for anti-MCL-1 Western analysis. […] For mass spectrometry (MS) analysis, eluates were run on a reducing/denaturing gel followed by Coomassie staining (FIG. 4) and in-gel digestion was performed before injection on the instrument.
The binding determinants for the MCL-1 BH3/VLCAD interaction were investigated by generating a series of biotinylated MCL-1 SAHBD alanine point mutants (FIG. 18A) and performing streptavidin pull-downs from MEF lysates, followed by VLCAD and MCL-1 western analysis of the resulting eluates. […] Native alanines and residues not mutated are colored white.
Wild-type MEFs were trypsinized, washed once with cold PBS, and lysed on ice with NP-40 lysis buffer (50 mM Tris, pH 7.4, 150 mM NaCl, 0.5% (v/v) NP-40, complete protease inhibitor pellet (Roche)) using 1 ml of lysis buffer for every 10 million cells lysed. Cellular debris was pelleted at 14,000 g for 10 min at 4° C., and the supernatant was quantified using the BCA Protein Assay Kit (Thermo Fisher Scientific). 2 mg of lysate per pulldown were then exposed to 50 μL of pre-equilibrated High Capacity Streptavidin Agarose beads (Thermo Fisher Scientific). […] The beads were then pelleted and washed with NP-40 lysis buffer three times before eluting the protein sample from the beads by heating at 70° C. for 10 min in SDS loading buffer. Samples were then subjected to electrophoresis and either Western analysis or Coomassie stain (SimplyBlue Safe Stain, Thermo Fisher Scientific). […] Coomassie stained gels were then processed for proteomics analysis (see below). Biotinylated SAHB pulldowns of recombinant protein were performed as above incubating 5 nmol of SAHB with 10 pmol of rVLCAD in 500 μL total volume. Densitometry analyses were performed using ImageJ software.

Data set [2] deals with T1, VLCAD (Homo sapiens, UniProt P49748).
T1 construct: 10x His (N); made in house; host or cells: E. coli BL21(DE3), pET19b
T1 sequence (P49748 40-655): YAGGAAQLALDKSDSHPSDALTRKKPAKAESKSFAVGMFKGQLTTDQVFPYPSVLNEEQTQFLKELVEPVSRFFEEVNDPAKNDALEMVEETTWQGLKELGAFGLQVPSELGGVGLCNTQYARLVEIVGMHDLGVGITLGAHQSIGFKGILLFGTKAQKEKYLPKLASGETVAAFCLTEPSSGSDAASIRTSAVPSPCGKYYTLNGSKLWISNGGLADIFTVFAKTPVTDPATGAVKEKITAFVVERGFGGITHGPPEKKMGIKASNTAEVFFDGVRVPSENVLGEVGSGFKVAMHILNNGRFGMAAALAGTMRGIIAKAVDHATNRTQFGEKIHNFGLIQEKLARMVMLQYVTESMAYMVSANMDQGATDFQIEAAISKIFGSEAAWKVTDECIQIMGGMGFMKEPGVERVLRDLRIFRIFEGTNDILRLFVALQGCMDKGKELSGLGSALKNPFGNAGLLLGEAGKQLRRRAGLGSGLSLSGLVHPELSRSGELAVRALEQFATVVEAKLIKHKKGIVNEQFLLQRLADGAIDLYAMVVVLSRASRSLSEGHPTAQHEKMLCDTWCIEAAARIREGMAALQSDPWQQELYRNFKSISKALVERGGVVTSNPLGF
Put plainly: Isothermal calorimetry (ITC). The class given is binding. As to conditions: 80 μM recombinant VLCAD, injection of 100 μM peptide, 25° C. The source says:
The alanine mutant peptide panel was then utilized in an isothermal calorimetry (ITC)-based enthalpy screen to assess the relative binding activities of the different peptides to recombinant VLCAD protein (FIG. 19A). Although some differences in binding hierarchy were observed between the pull down (native protein) and ITC (purified recombinant protein) methods, those peptides displaying the strongest and weakest binding activity for VLCAD were similar between the two analyses.
VLCAD. Mature human VLCAD lacking its cleavable leader sequence (aa 40-655) (NP_000009.1) was subcloned into the pET19b vector (Novagen) using NdeI and XhoI restriction sites. Correct insertion was confirmed by DNA sequencing. The 10× His-tagged VLCAD construct was expressed in BL21(DE3) E. coli, and once cells reached an OD of 0.8 after growing at 37° C., they were induced with 0.5 mM […] (IPTG) (Gold Biotechnology I2481C) at 37° C. for 4 hours. Bacterial pellets were resuspended in lysis buffer (500 mM NaCl, 50 mM HEPES, 5% glycerol, pH 7.5, complete protease inhibitor tablet) and lysed by microfluidization (M-110L; Microfluidics). Cell lysates were then cleared by centrifugation at 20,000 rpm for 45 min (Beckman Avanti J-E, rotor type JA-20). Cleared cellular lysates were then subjected to Ni-NTA (QIAGEN) affinity chromatography, followed by elution with 300 mM imidazole (Sigma 12399) and overnight dialysis at 4° C. Dialyzed VLCAD was then concentrated and subjected to size exclusion chromatography (GE Healthcare Life Sciences Superdex 200 10/300 GL) at 4° C. using 150 mM NaCl, 50 mM Tris, pH 8.0. Protein was used upon isolation and was stored at 4° C. for up to two weeks. Successful protein production was confirmed by SDS-PAGE, Western blot, intact MS, and enzymatic activity assay.
A peptide enthalpy screen was performed by adding 80 μM of recombinant VLCAD to the cell in analysis buffer (20 mM HEPES, pH 7.5, 150 mM NaCl, 1 mM TCEP, and 1% DMSO), followed by injection of 2.0 μL of 100 μM peptide by syringe, using an Affinity ITC (TA instruments) at 25° C. Injections were performed in technical triplicate for each peptide. […] Data were analyzed with the NanoAnalyze software package (TA instruments) using a single binding site model and thermodynamic parameters calculated as follows: ΔG=ΔH−TΔS=−RTlnKB, where ΔG, ΔH, and ΔS are the changes in free energy, enthalpy and entropy of binding, respectively.
(In general: In ITC the heat of successive injections is recorded.)

In data set [3] the test system is Mcl-1^F/F CreER^T2 cells. As to conditions: vehicle and tamoxifen exposed cells; except at the highest dose applied (100 μM).

“R214A: biotinylated MCL-1 SAHBD alanine point mutant R214A (RKALETLARVGDGV[S5]RNH[S5]TAF; staple 15-19; also: biotinylated, place not given here)”: the “summary of binding properties: binding to MCL-1” value (“summary of binding properties” below) in data set [1] was “Does not bind”. For the same compound, in data set [2], the “relative binding activity for VLCAD (ITC enthalpy screen, consistent with pull down)” value (from here on “relative binding activity for VLCAD”) is on record as “weak VLCAD association”.

Consider “R215A: biotinylated MCL-1 SAHBD alanine point mutant R215A (RKALETLRAVGDGV[S5]RNH[S5]TAF; staple 15-19; also: biotinylated, place not given here)”, for which, in data set [1], the “summary of binding properties” value is listed as “Binds”. Further, the “relative binding activity for VLCAD” value in data set [2] is listed as “weak VLCAD association”.

Take “MCL-1 SAHBD: hydrocarbon-stapled peptide mimicking the MCL-1 BH3 domain (Stabilized Alpha-Helix of BCL-2 Domain), SEQ ID NO:19 (RKALETLRRVGDGV[S5]RNH[S5]TAF; staple 15-19)”: in data set [1], the “summary of binding properties” value was “Binds”. Further, in data set [3], the “cytotoxicity (cell viability)” value is on record as “Essentially no cytotoxicity”.

“R207A: biotinylated MCL-1 SAHBD alanine point mutant R207A (AKALETLRRVGDGV[S5]RNH[S5]TAF; staple 15-19; also: biotinylated, place not given here)”: the “summary of binding properties” value in data set [1] is on record as “diminished binding”. Also, the “relative binding activity for VLCAD” value in data set [2] is given as “weak VLCAD association”.

With “F228A: biotinylated MCL-1 SAHBD alanine point mutant F228A (RKALETLRRVGDGV[S5]RNH[S5]TAA; staple 15-19; also: biotinylated, place not given here)”, the “summary of binding properties” value in data set [1] is given as “Does not bind”. In data set [2], the “relative binding activity for VLCAD” value is “weak VLCAD association”.

Consider “L213A: biotinylated MCL-1 SAHBD alanine point mutant L213A (RKALETARRVGDGV[S5]RNH[S5]TAF; staple 15-19; also: biotinylated, place not given here)”, for which, in data set [1], the “effect of alanine mutation on biotinylated MCL-1 SAHBD interaction with MCL-1” value was “disrupted” and the “summary of binding properties” value is recorded as “Does not bind”. The “relative binding activity for VLCAD” value in data set [2] is reported as “weak VLCAD association”.

As to `CC(=O)N[C@@H](CCCNC(=N)N)C(=O)N[C@@H](CCCCN)C(=O)N[C@@H](C)C(=O)N[C@@H](CC(C)C)C(=O)N[C@@H](CCC(=O)O)C(=O)N[C@H](C(=O)N[C@@H](CC(C)C)C(=O)N[C@@H](CCCNC(=N)N)C(=O)N[C@@H](CCCNC(=N)N)C(=O)N[C@H](C(=O)NCC(=O)N[C@@H](CC(=O)O)C(=O)NCC(=O)N[C@@H](C)C(=O)N[C@@]1(C)CCCC=CCCC[C@@](C)(C(=O)N[C@H](C(=O)N[C@@H](C)C(=O)N[C@@H](Cc2ccccc2)C(N)=O)[C@@H](C)O)NC(=O)[C@H](Cc2c[nH]cn2)NC(=O)[C@H](CC(N)=O)NC(=O)[C@H](CCCNC(=N)N)NC1=O)C(C)C)[C@@H](C)O` [V220A] (Ac-RKALETLRRVGDGA[S5]RNH[S5]TAF-NH2; staple 15-19; N-terminus and C-terminus assumed), in data set [1], the “effect of alanine mutation on biotinylated MCL-1 SAHBD interaction with MCL-1” value is given as “uniquely disruptive” and the “summary of binding properties” value is reported as “weakly or not”. Moreover, the “relative binding activity for VLCAD” value in data set [2] is recorded as “robust binding”. Also, the “relative binding activity for VLCAD” value in data set [2] (listed as MCL-1 SAHBD V220A) is recorded as “strongest binder”.

For “D218A: biotinylated MCL-1 SAHBD alanine point mutant D218A (RKALETLRRVGAGV[S5]RNH[S5]TAF; staple 15-19; also: biotinylated, place not given here)”, the “summary of binding properties” value in data set [1] was “Binds”. Also, the “relative binding activity for VLCAD” value in data set [2] is “robust binding”.
